Experimental data: patent US7722906B2, “Polyunsaturated fatty acid fractions of Nigella sativa L. seeds” (priority 2004, dated 2010)

Test system: writhing induced by parabenzoquinone
Experiment: Analgesic activity, writhing method
Assay type: in vivo, mice
Conditions: 5.0 mg/100 g.b.w.
Method: The analgesic activity of the Nigella sativa L. polyunsaturated fatty acid fraction was studied using the writhing method described by Okun et al. (1963). Thirty mature mice of both sexes weighing from 20 to 25 gm were divided into 3 groups of 10 mice each. The first group served as a control and the second group served as a standard (treated with paracetamol in a dose of 5 mg/100 gm body weight). The third group was injected subcutaneously with the Nigella sativa L. polyunsaturated fatty acid fraction. […] […] Animals devoid of writhing in each group were recorded and the analgesic potencies of paracetamol and the Nigella sativa L. polyunsaturated fatty acid fraction were determined as percent protection against writhing.

## CC(=O)Nc1ccc(O)cc1 [Paracetamol, paracetamol]
30 minutes
  % Protection: 100%
60 minutes
  % Protection: 60%
90 minutes
  % Protection: 40%
120 minutes
  % Protection: 20%
